We go through 52 compounds from US8299054B2, “Cyclic 11-beta hydroxysteroid dehydrogenase type 1 inhibitors” (Bristol-Myers Squibb Company, priority 2006, dated 2012).

The structures appear in SMILES notation.

For orientation: % inhibition means the change of the read-out against control, counted positive when it falls. Low readings indicate a response near the control, high ones a response far below the control. A word on the IC50: it is the concentration needed to halve the response being measured.

The target in one experiment is T1, 11beta-HSD1 (Mus musculus, UniProt P50172).
T1 construct: from tissue; host or cells: whole animal: diet induced obese (DIO) mice, Jackson Laboratory
T1 sequence (P50172 whole entry): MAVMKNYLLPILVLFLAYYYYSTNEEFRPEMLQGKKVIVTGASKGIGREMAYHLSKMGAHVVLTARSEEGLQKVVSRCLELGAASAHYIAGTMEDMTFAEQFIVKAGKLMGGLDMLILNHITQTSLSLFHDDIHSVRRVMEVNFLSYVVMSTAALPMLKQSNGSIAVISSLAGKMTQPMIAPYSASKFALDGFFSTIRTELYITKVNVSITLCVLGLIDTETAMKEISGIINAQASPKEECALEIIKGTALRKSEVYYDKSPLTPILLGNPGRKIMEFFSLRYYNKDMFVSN
The experiment in a line: In vivo inhibition of 11beta-HSD1: DHC administration to DIO mice, plasma corticosterone AUC. The settings on record: 30 mpK, oral, DHC 10 mg/kg 60 minutes after compound.
Procedure: Studies were conducted utilizing diet induced obese (DIO) mice obtained from Jackson Laboratory (ME, USA). These mice were fed a 60% fat diet (Research Diets D12492) soon after weaning and kept on this diet for 24 weeks. These mice were individually housed. All mice were housed under controlled temperature (23° C.) and lighting (12 hours of light between 6 am to 6 pm, 12 hours of dark) with free access to water. The animals continued on this diet and were utilized for experimentation at 30 to 32 weeks of age, at which time these mice weighed 45 to 55 grams.
The basic model of 11-dehydrocorticosterone (DHC) administration to mice to produce corticosterone has been reported in the literature for clinical and preclinical evaluation of the activity of 11 β HSD. Essentially DHC (Steraloids INC, Newport R.I.), was suspended in the vehicle at a concentration of 10 mg/kg in a volume of 7.5 ml/kg of mouse body weight. […] Plasma was separated and collected and immediately frozen at −20° C. until corticosterone analysis could be assessed.
Plasma Corticosterone was measured using an EIA (IDS AC-14F1). Samples were measured at (1:2) for the −30 (or −60 minute) and 0 time point and (1:10) for the 30, 60 and 120 minutes time points. AUC was calculated using Graphpad and the zero timepoint was used as the baseline. One way ANOVA was calculated using Sigmastat. […]
Regarding `CNC(=O)OC1CN(C(=O)CC2(c3ccccc3)C3CC4CC2CC(C3)C4O)C1` (single isomer, unassigned) [Example 242], the “% inhibition” value turned out to be 65%.
The same measure, in the same setting: the figure for `O=C(CC1(c2ccc(F)cc2)C2CC3CC1CC(C2)C3O)N1CC(O)C1` (centres unmarked) [Example 217] is 67%.

The subject of another experiment is hepatic glucose production.
Assay: not given
As to conditions: patients with type 2 diabetes, seven days, versus placebo; cited from earlier work.
On to `CC1(C)[C@@H](OC(=O)CCC(=O)O)CC[C@]2(C)[C@H]3C(=O)C=C4[C@@H]5C[C@@](C)(C(=O)O)CC[C@]5(C)CC[C@@]4(C)[C@]3(C)CC[C@@H]12` [carbenoxolone], for which the hepatic glucose production entry is on record as “decrease in hepatic glucose production”.

The target in a further experiment is recombinant human 11beta-HSD1 (Homo sapiens, UniProt P28845). The experiment in a line: 11β-HSD-1 SPA Enzyme Assay (Scintillation Proximity assay, microsomes of transfected HEK 293 EBNA cells).
recombinant human 11beta-HSD1, sequence (P28845 whole entry): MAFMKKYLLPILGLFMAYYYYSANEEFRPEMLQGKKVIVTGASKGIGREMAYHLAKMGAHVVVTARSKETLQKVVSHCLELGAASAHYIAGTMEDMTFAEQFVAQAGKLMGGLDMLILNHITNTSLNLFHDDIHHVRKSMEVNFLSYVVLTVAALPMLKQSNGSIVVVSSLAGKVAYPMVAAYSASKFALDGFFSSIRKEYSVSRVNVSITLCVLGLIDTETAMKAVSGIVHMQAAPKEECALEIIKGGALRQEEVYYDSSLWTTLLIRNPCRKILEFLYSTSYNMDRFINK
Conditions: not given
In general terms: Scintillation proximity formats need no separation of bound from free tracer.
Turning to `CNC(=O)OC1CN(C(=O)CC2(c3ccccc3)C3CC4CC2CC(C3)C4O)C1` (single isomer, unassigned) [Example 242], the IC50 was determined as 8.8 nM.
On the same count and under the same terms, the figure for `O=C(NCc1nnn[nH]1)OC1CN(C(=O)CC2(c3ccccc3)C3CC4CC2CC(C3)C4O)C1` (single isomer, unassigned) [Example 259] is 75 nM; for `O=C(CC1(c2ccccc2)C2CC3CC1CC(C2)C3O)N1CC(CO)C1` (single isomer, unassigned) [Example 265] it is 6.1 nM; for `O=C(CC1(c2ccccc2)C2CC3CC1CC(C2)C3O)N1C[C@H](O)CO1` (single isomer, unassigned) [Example 270] it is 16 nM.
The same measure, in the same setting: the figure for `O=C(CC1(c2ccccc2)C2CC3CC1CC(C2)C3O)N1CCC[C@H](O)C1` (single isomer, unassigned) [Example 279] is 260 nM; for `O=C(CC1(c2ccccc2)C2CC3CC1CC(C2)C3O)N1CCC[C@@H](O)C1` (single isomer, unassigned) [Example 281] it is 175 nM.
Still for that read-out and setting: the figure for `O=C(CC1(c2ccc(F)cc2)C2CC3CC(C2)CC1C3)N1CC[C@H](O)C1` (single isomer, unassigned) [Example 302] is 2.4 nM; for `O=C(O)COC1(c2ccc(F)cc2)C2CC3CC(C2)CC1C3` (centres unmarked) [Example 8] it is 633 nM.
Turning to `CS(=O)(=O)NC(=O)CC1(c2ccc(F)cc2)C2CC3CC(C2)CC1C3` (centres unmarked) [Example 22], the IC50 stood at 159 nM.
The same measure, in the same setting: then `CNC(=O)OC1CN(C(=O)C[C@]2(c3ccc(F)cc3)C3CC4CC2C[C@](C(N)=O)(C4)C3)C1` [Example 32], with 21 nM; and `O=C(CC1(c2ccccc2)C2CC3CC1CC(C2)C3O)N1CC(c2nnc3ccccn23)C1` (centres unmarked) [Example 35], with 636 nM; and `O=C(N1CC(O)C1)C1(Cc2ccccc2Cl)C2CC3CC(C2)CC1C3` (centres unmarked) [Example 37], with 15 nM.
`O=C(O)CC1(Cc2ccccc2)C2CCCC1CCC2` (centres unmarked) [Example 49]: the IC50 was 97 nM.
On to `O=C(O)C1(Cc2coc(-c3ccc(F)cc3)n2)C2CC3CC(C2)CC1C3` (centres unmarked) [Example 55], for which the IC50 was found to be 2980 nM.
Same read-out and setting: then `COC(=O)C1CN1C(=O)CC1(c2ccc(F)cc2)C2CC3CC(C2)CC1C3` (centres unmarked) [Example 79], with 81 nM; and `C=CCO[C@]12CC3CC(C1)[C@](CC(=O)N1CC(O)C1)(c1ccc(F)cc1)C(C3)C2` [Example 98], with 1.6 nM; and `O=C(O)C1CN(C(=O)C2CN(C(=O)CC3(Cc4ccccc4)C4CC5CC(C4)CC3C5)C2)C1` (centres unmarked) [Example 106], with 457 nM.
On the same count and under the same terms, then `O=C(O)COC1CN(C(=O)CC2(c3ccc(F)cc3)C3CC4CC(C3)CC2C4)C1` (centres unmarked) [Example 117], with 90 nM; and `O=C(C[C@]1(Cc2ccccc2)C2CC3CC1C[C@@](O)(C3)C2)N1CC(O)C1` [Example 122], with 253 nM.
Turning to `O=C(O)C1(Cc2cccc(F)c2)C2CC3CC(C2)CC1C3` (centres unmarked) [Example 132], the IC50 stood at 15 nM.
Regarding `C=C1CC2CCC(C1)C2(CC(=O)O)c1ccc(F)cc1` (centres unmarked) [Example 134], the IC50 stood at 30 nM.
Still for that read-out and setting: then `O=C(O)C1(CCc2ccccc2)C2CC3CC(C2)CC1C3` (centres unmarked) [Example 136], with 1150 nM; and `Cc1noc(C)c1CC1(C(=O)O)C2CC3CC(C2)CC1C3` (centres unmarked) [Example 140], with 651 nM.
For the compound `O=C(C[C@]1(Cc2ccccc2Cl)C2CC3CC1C[C@](O)(C3)C2)N1CC(O)C1` [Example 167], the IC50 is 20 nM.
Regarding `O=C(CC1(c2ccc(F)cc2)C2CC3CC(C2)CC1C3)N1CC(Oc2ccccc2)C1` (centres unmarked) [Example 174], the IC50 was determined as 1 nM.
The same measure, in the same setting: the figure for `O=C(C[C@]1(c2ccc(F)cc2)C2CC3CC1C[C@@](C(=O)O)(C3)C2)N1CC(O)C1` [Example 181] is 128 nM.
In the case of `N#Cc1ccc(OC2CN(C(=O)CC3(c4ccc(F)cc4)C4CC5CC(C4)CC3C5)C2)nc1` (centres unmarked) [Example 182], the IC50 was found to be 2.4 nM.
Still for that read-out and setting: the figure for `CC1(CC(=O)N2CC(NC(=O)OCc3ccccc3)C2)C2CC3CC1CC(C2)C3O` (centres unmarked) [Example 183] is 182 nM.
On the same count and under the same terms, the figure for `CC(C(=O)N1CC(O)C1)C1(c2ccc(F)cc2)C2CC3CC(C2)CC1C3` (centres unmarked) [Example 188] is 121 nM.
Same read-out and setting: then `O=C(O)C(C(=O)N1CC(O)C1)C1(c2ccc(F)cc2)C2CC3CC(C2)CC1C3` (centres unmarked) [Example 190], with 9120 nM.
Consider `COC(=O)NC1CN(C(=O)C[C@]2(c3ccc(F)cc3)C3CC4CC2C[C@](C(N)=O)(C4)C3)C1` [Example 210], for which the IC50 is 316 nM.
Turning to `CNC(=O)NC1CN(C(=O)CC2(c3ccccc3)C3CC4CC2CC(C3)C4O)C1` (centres unmarked) [Example 212], the IC50 turned out to be 127 nM.
On the same count and under the same terms, then `COC(=O)NC1CN(C(=O)CC2(c3ccc(F)cc3)C3CC4CC2CC(C3)O4)C1` (centres unmarked) [Example 235], with 520 nM.
The same measure, in the same setting: then `CNC(=O)OC1CN(C(=O)CC2(c3ccc(F)cc3)C3CC4CC2CC(C3)O4)C1` (centres unmarked) [Example 236], with 274 nM; and `CNC(=O)OC1CN(C(=O)C2(Cc3ccc(Cl)cc3)C3CC4CC(C3)CC2C4)C1` (centres unmarked) [Example 240], with 67 nM; and `CC(C)(O)CNC(=O)OC1CN(C(=O)CC2(c3ccccc3)C3CC4CC2CC(C3)C4O)C1` (centres unmarked) [Example 243], with 16 nM.
For `O=C(CC1(c2ccccc2)C2CC3CC1CC(C2)C3O)N1CCSC1` (centres unmarked) [Example 247], the IC50 was 3 nM.
On the same count and under the same terms, the figure for `CS(=O)(=O)NC(=O)C1CN(C(=O)CC2(c3ccccc3)C3CC4CC2CC(C3)C4O)C1` (centres unmarked) [Example 250] is 1720 nM; for `CC(C)c1ccc(C2(CC(=O)N3CC(O)C3)C3CC4CC2CC(C3)C4O)cc1` (centres unmarked) [Example 292] it is 2.8 nM.
On the same count and under the same terms, the figure for `O=C(CC1(c2ccc(F)cc2)C2CC3CC(C2)CC1C3)N1CCC(OCc2ccccc2)C1` (centres unmarked) [Example 303] is 4.7 nM; for `CN(CCO)C(=O)CC1(c2ccc(F)cc2)C2CC3CC(C2)CC1C3` (centres unmarked) [Example 304] it is 25 nM; for `O=C(NC1CCN(C(=O)CC2(c3ccc(F)cc3)C3CC4CC(C3)CC2C4)C1)OCc1ccccc1` (centres unmarked) [Example 305] it is 28 nM.
With `CCN(CC)C(=O)CC1(c2ccc(F)cc2)C2CC3CC1CC(F)(C3)C2` (centres unmarked) [Example 307], the IC50 stood at 383 nM.

Still in this experiment, the particulars now being: read-out: h HSD1 IC50; human microsomes, 40 nM 3H-cortisone, 4 hrs at room temperature.
As for `O=C(CC1(c2ccc(F)cc2)C2CCCC1CC(O)C2)N1CC(O)C1` (centres unmarked) [Example 23, 2-(9-(4-Fluorophenyl)-3-hydroxybicyclo[3.3.1]nonan-9-yl)-1-(3-hydroxyazetidin-1-yl)ethanone], the IC50 was 8.3 nM.
As for `Cn1nnc(C2CN(C(=O)CC3(c4ccccc4)C4CC5CC3CC(C4)C5O)C2)n1` (centres unmarked) [Example 28], the IC50 was determined as 10 nM.
For the compound `Cc1nnc(C2CN(C(=O)CC3(c4ccccc4)C4CC5CC3CC(C4)C5O)C2)o1` (centres unmarked) [Example 34], the IC50 is 196 nM.
The same measure, in the same setting: the figure for `Cc1nnc(COC2CN(C(=O)CC3(c4ccccc4)C4CC5CC3CC(C4)C5O)C2)o1` (centres unmarked) [Example 36] is 14 nM; for `CS(=O)(=O)NC1CN(C(=O)CC2(Cc3ccccc3)C3CC4CC2CC(C3)C4O)C1` (centres unmarked) [Example 195] it is 105 nM.
Still for that read-out and setting: then `CC1(CC(=O)N2CC(O)(c3ccc(F)cc3)C2)C2CC3CC1CC(C2)C3O` (centres unmarked) [Example 213], with 44 nM.
In the case of `CNC(=O)OCC1CN(C(=O)CC2(c3ccccc3)C3CC4CC2CC(C3)C4O)C1` (centres unmarked) [Example 216], the IC50 came out at 5.1 nM.
